Assays:
BV2 microglia cells [1] = test: Nitrite release (Griess reaction) in LPS-treated BV2 microglia; format: cell-based; settings: LPS 1 μg/mL, basal = 100
Text: The COX-1 inhibition data prompted us to undertake further work on the activity of compounds 3 in a neuroinflammation situation. Once we had verified that the compounds studied were not toxic per se in microglia BV2 cells (see the data in Table S1), we measured the nitrites released to determine the efficacy of our compounds in reducing microglia activation. Nitric oxide is a potent mediator of the classic activated microglia phenotype (M1); in fact, the lack of nitrite release correlated with an anti-inflammatory microglia (M2) phenotype. Therefore, we evaluated the response of the BV2 microglia cells to a challenge of 1 μg/mL LPS. For this purpose, BV2 microglia cells were incubated with LPS, a well-known agonist of the toll-like receptor 4 (TLR4) that causes a neuroinflammatory response, in combination with increasing concentrations of our COX-1 inhibitors (1, 3, and 10 μM). […] Similar results were observed after 48 h of the LPS treatment.
(§1) Cultures were seeded into flasks containing supplemented medium and kept at 37 °C in a humidified atmosphere of 5% CO2 and 95% air. For assays, BV-2 cells were subcultured in 48-well plates at a seeding density of 1 × 10^5 cells per well. Cells were treated with LPS (Sigma-Aldrich, Madrid, Spain) for 24 or 48 h before confluence in RPMI with 1% FBS.
The NO assay was performed using the previously reported protocols. Briefly, 100 μL of culture supernatants were mixed with the same volume of Griess assay regent (1% sulfanilamide (Sigma Aldrich, Madrid, Spain), 0.1% naphthylethylenediamine dihydrochloride, and 2.5% phosphoric acid). Ten minutes later, the 560-nm absorbance was measured.

[2] = test system: organotypic hippocampal cultures (OHCs); test: Cell death (propidium iodide uptake, CA1) in organotypic hippocampal cultures treated with LPS; format: cell-based, Sprague-Dawley rats; settings: LPS 1 μg/mL, 24 h
Experimental: With these promising data in hand, we selected compound 3b for its study in a more complex preparation. In vivo administration of LPS produces a proinflammatory cascade that causes memory deficits, an increase of inflammatory markers, and impairment of hippocampal glutamatergic transmission, contributing to neuronal death. All of these functional changes have been described to take place mainly in the hippocampus region. Thus, we subjected organotypic hippocampal cultures (OHCs) to LPS (1 μg/mL) to assess the protective effect of COX-1 inhibition. This kind of explant allows us to study the microglia-neuron network in a more complex and physiological model of cerebral insult.
OHCs were conducted on 8–10-day-old Sprague-Dawley rats supplied by the animal facilities of Universidad Autónoma de Madrid (Madrid, Spain). Cultures were prepared according to the methods described by Stoppini et al. with some modifications. […]
Cell death was determined in the CA1 region by staining the OHCs with propidium iodide (PI). Thirty minutes before analyzing fluorescence, slices were incubated with PI (1 µg/mL). Fluorescence was measured in an epifluorescence Olympus BX50WI microscope. […] Fluorescence was measured in each slice using ImageJ.

BV2 microglia cells [3] = test: ROS production (H2DCFDA) in LPS-treated BV2 microglia; format: cell-based; settings: 3 μM, LPS 1 μg/mL, 24 h
Text: Activation of toll-like receptors (TLRs), particularly the TLR4 subtype, is closely associated with the production of reactive oxygen and nitrogen species that contribute to neuronal death in the CNS. In this connection, NADPH oxidase enzymes are the main ones responsible for ROS production induced by NF-κB nuclear translocation. For this reason, we decided to assess the ROS levels of BV2 microglia cells treated with LPS and the effect of our compounds under this toxicity protocol. To this end, the compounds, at different concentrations (3 μM of 3a, 3b, and 3d and 10 μM of 3c) were incubated with 1 μg/mL LPS for 24 h. After this period, ROS production was measured with the fluorescent probe H2DCFDA. Treatment with LPS increased by 1.75-fold the amount of ROS compared with control cells.
as §1
To measure cellular ROS, we used the molecular probe 2′,7′-dichlorodihydrofluorescein diacetate (H2DCFDA). Glial cells were loaded with 5 µM H2DCFDA as it was previously described (Parada et al., 2015). Fluorescence was measured in a fluorescence microplate reader (FLUOstar Galaxy; BMG Labtech, Offenburg, Germany). Wavelengths of excitation and emission were 485 and 520 nm, respectively. The relative pixel intensity was measured in identical regions with (ImageJ 1.52a software, National Institutes of Health, Bethesda, MD, USA).

Cc1ccc(-c2cc(N)cc(-c3ccccc3)c2)cc1 [Compound 3b, 4-Methyl-5′-amino-m-terphenyl]
Nitrite Release after 24 h (BV2 microglia cells [1]; 1 μM): 123 ± 8%
Nitrite Release after 48 h (BV2 microglia cells [1]; 1 μM): 140 ± 14%
Nitrite Release after 24 h (BV2 microglia cells [1]; 3 μM): 100 ± 4 %
Nitrite Release after 48 h (BV2 microglia cells [1]; 3 μM): 123 ± 10 %
Nitrite Release after 24 h (BV2 microglia cells [1]; 10 μM): 105 ± 6 %
Nitrite Release after 48 h (BV2 microglia cells [1]; 10 μM): 128 ± 10 %
Cell death (PI uptake in CA1) induced by LPS [2]: reduced cell death induced by LPS almost to basal levels
ROS production induced by LPS (BV2 microglia cells [3]): significantly reverted ROS production almost to basal levels

Reference: paper PMC10384011, “m-Terphenylamines, Acting as Selective COX-1 Inhibitors, Block Microglia Inflammatory Response and Exert Neuroprotective Activity” (Molecules, 2023)
